Laboratory results published in ChEMBL document CHEMBL4814080, “Design, Synthesis, and Biological Evaluation of Novel 1,3-Oxazole Sulfonamides as Tubulin Polymerization Inhibitors” (ACS Med Chem Lett, 2021).
Activity calls are given as the source filed them. No cut-off for these calls is given here.

Legend:
[1] = test system: leukaemia cell line; assay: Cytotoxicity against human leukaemia cell line assessed as cell growth inhibition measured after 48 hrs by sulforhodamine B assay; format: functional; conditions: for CC50: read-out: LC50 (the source's name)
[2] = test system: Panel NCI-60 (60 carcinoma cell lines); assay: Cytotoxicity against human Panel NCI-60 (60 carcinoma cell lines) assessed as cell growth at 10 uM after 48 hrs by sulforhodamine B assay relative to control; format: functional; conditions: read-out: Activity
[3] = test system: COLO 205; assay: Cytotoxicity against human COLO 205 cells assessed as cell growth at 10 uM after 48 hrs by sulforhodamine B assay relative to control; format: functional; conditions: read-out: Activity
[4] = test system: MOLT-4; assay: Cytotoxicity against human MOLT-4 cells assessed as cell growth at 10 uM after 48 hrs by sulforhodamine B assay relative to control; format: functional; conditions: read-out: Activity
[5] = test system: NCI/ADR-RES; assay: Cytotoxicity against human NCI/ADR-RES cells assessed as cell growth at 10 uM after 48 hrs by sulforhodamine B assay relative to control; format: functional; conditions: read-out: Activity
[6] = test system: TK-10; assay: Cytotoxicity against human TK-10 cells assessed as cell growth at 10 uM after 48 hrs by sulforhodamine B assay relative to control; format: functional; conditions: read-out: Activity
[7] = test system: SK-OV-3; assay: Cytotoxicity against human SK-OV-3 cells assessed as cell growth at 10 uM after 48 hrs by sulforhodamine B assay relative to control; format: functional; conditions: read-out: Activity
[8] = test system: SR; assay: Cytotoxicity against human SR cells assessed as cell growth at 10 uM after 48 hrs by sulforhodamine B assay relative to control; format: functional; conditions: read-out: Activity
[9] = test system: Panel NCI-60 (60 carcinoma cell lines); assay: Cytotoxicity against human Panel NCI-60 (60 carcinoma cell lines) assessed as cell growth inhibition measured after 48 hrs by sulforhodamine B assay; format: functional
[10] = (§1) Inhibition of porcine brain tubulin polymerization incubated for 60 mins by spectrophotometry; format: tissue-based, Sus scrofa
[11] = organism: Sus scrofa; assay: as §1; format: tissue-based

| SMILES | GI50 [1] [µM] | TGI [1] [µM] | CC50 [1] [µM] | growth at 10 µM [2] [%] | further results |
| --- | --- | --- | --- | --- | --- |
| O=S(=O)(Nc1ccc(F)c(Cl)c1)c1ccc(-c2cnc(C3CC3)o2)cc1 | 0.26 | 73.7 | > 100 | 23 | – |
| O=S(=O)(Nc1ccc(I)cc1Cl)c1ccc(-c2cnc(C3CC3)o2)cc1 | – | – | – | 39.5 | – |
| Cc1ccc(Cl)c(NS(=O)(=O)c2ccc(-c3cnc(C4CC4)o3)cc2)c1 | 0.0488 | 52.8 | > 100 | 25.3 | – |
| O=S(=O)(Nc1ccc(Cl)cc1Cl)c1ccc(-c2cnc(C3CC3)o2)cc1 | 0.481 | 74.5 | > 100 | 25 | – |
| O=S(=O)(Nc1cc(Cl)ccc1Cl)c1ccc(-c2cnc(C3CC3)o2)cc1 | 1.02 | > 100 | > 100 | 34.6 | – |
| O=S(=O)(c1ccc(-c2cnc(C3CC3)o2)cc1)N1CCOCC1 | – | – | – | 94.2 | growth at 10 µM [3]: 95%; growth at 10 µM [4]: 95.3%; growth at 10 µM [5]: 93.5%; growth at 10 µM [6]: 101%; growth at 10 µM [7]: 112%; growth at 10 µM [8]: 91.3% |
| CN(c1ccc(Br)cc1)S(=O)(=O)c1ccc(-c2cnc(C3CC3)o2)cc1 | – | – | – | 31.4 | GI50 [9]: 3.92 µM |
| CS(=O)(=O)CCNS(=O)(=O)c1ccc(-c2cnc(C3CC3)o2)cc1 | – | – | – | 94.1 | growth at 10 µM [3]: 94.4%; growth at 10 µM [4]: 94.1%; growth at 10 µM [5]: 94.1%; growth at 10 µM [6]: 99.1%; growth at 10 µM [7]: 105%; growth at 10 µM [8]: 80.3% |
| O=S(=O)(Nc1ccc(F)cc1)c1ccc(-c2cnc(C3CC3)o2)cc1 | – | – | – | 28.1 | growth at 10 µM [3]: 20.2%; growth at 10 µM [4]: 12.7%; growth at 10 µM [5]: -0.9%; growth at 10 µM [6]: 32.5%; growth at 10 µM [7]: 39.7%; growth at 10 µM [8]: 11.6% |
| O=S(=O)(Nc1ccc(Br)cc1)c1ccc(-c2cnc(C3CC3)o2)cc1 | – | – | – | 26.9 | growth at 10 µM [3]: 23.9%; GI50 [9]: 2.75 µM; LC50 (concentration causing 50% net cell kill) [9]: 54 µM; growth at 10 µM [4]: 15.8%; growth at 10 µM [5]: -2.2%; growth at 10 µM [6]: 64.1%; growth at 10 µM [7]: 35.5%; growth at 10 µM [8]: 12.7% |
| N#Cc1ccc(NS(=O)(=O)c2ccc(-c3cnc(C4CC4)o3)cc2)cc1 | – | – | – | 95.7 | – |
| O=S(=O)(Nc1ccc(Br)c(Cl)c1)c1ccc(-c2cnc(C3CC3)o2)cc1 | 0.491 | 70.3 | > 100 | 21.5 | IC50 [10]: < 0.08 µM |
| O=S(=O)(Nc1cc(Cl)c(F)c(Cl)c1)c1ccc(-c2cnc(C3CC3)o2)cc1 | – | – | – | 37.1 | – |
| CN(c1ccc(Cl)cc1)S(=O)(=O)c1ccc(-c2cnc(C3CC3)o2)cc1 | – | – | – | 30.6 | – |
| O=S(=O)(Nc1cc(Cl)cc(Cl)c1)c1ccc(-c2cnc(C3CC3)o2)cc1 | – | – | – | 36.9 | – |
| O=S(=O)(Nc1ccc(F)cc1F)c1ccc(-c2cnc(C3CC3)o2)cc1 | 0.356 | 66 | > 100 | 29.1 | – |
| Cc1cc(Cl)ccc1NS(=O)(=O)c1ccc(-c2cnc(C3CC3)o2)cc1 | 0.277 | 54.7 | > 100 | 24 | – |
| O=S(=O)(Nc1ccc(I)cc1F)c1ccc(-c2cnc(C3CC3)o2)cc1 | – | – | – | 49.8 | – |
| O=S(=O)(Nc1ccc(C2CC2)cc1)c1ccc(-c2cnc(C3CC3)o2)cc1 | – | – | – | 63.4 | – |
| O=S(=O)(Nc1ccc(C(F)(F)F)cc1)c1ccc(-c2cnc(C3CC3)o2)cc1 | – | – | – | 94.5 | – |
| CC(=O)c1ccc(NS(=O)(=O)c2ccc(-c3cnc(C4CC4)o3)cc2)cc1 | – | – | – | 93.5 | – |
| O=C1COCCN1c1ccc(NS(=O)(=O)c2ccc(-c3cnc(C4CC4)o3)cc2)cc1 | – | – | – | 96.7 | – |
| O=S(=O)(Nc1cccc(Cl)c1)c1ccc(-c2cnc(C3CC3)o2)cc1 | 0.477 | 54.2 | > 100 | 24.2 | – |
| CC(=O)O[C@H]1C(=O)[C@@]2(C)[C@H]([C@H](OC(=O)c3ccccc3)[C@]3(O)C[C@H](OC(=O)[C@H](O)[C@@H](NC(=O)c4ccccc4)c4ccccc4)C(C)=C1C3(C)C)[C@]1(OC(C)=O)CO[C@@H]1C[C@@H]2O | – | – | – | – | inhibition [11]: inactive |
| Cc1cc(NS(=O)(=O)c2ccc(-c3cnc(C4CC4)o3)cc2)ccc1I | – | – | – | 35.9 | – |
| O=S(=O)(Nc1ccc(N2CCOCC2)c(F)c1)c1ccc(-c2cnc(C3CC3)o2)cc1 | – | – | – | 92.2 | – |

| SMILES | GI50 [1] [µM] | TGI [1] [µM] | CC50 [1] [µM] | growth at 10 µM [2] [%] | further results |
| --- | --- | --- | --- | --- | --- |
| O=S(=O)(Nc1ccc(Cl)c(Cl)c1)c1ccc(-c2cnc(C3CC3)o2)cc1 | 0.416 | 62.1 | > 100 | 25.3 | IC50 [10]: < 0.08 µM |
| O=S(=O)(Nc1ccc2c(c1)OCO2)c1ccc(-c2cnc(C3CC3)o2)cc1 | – | – | – | 35.8 | – |
| O=S(=O)(Nc1ccc(C(F)(F)F)c(Cl)c1)c1ccc(-c2cnc(C3CC3)o2)cc1 | – | – | – | 77.1 | – |
| O=S(=O)(Nc1cc(F)cc(Cl)c1)c1ccc(-c2cnc(C3CC3)o2)cc1 | 1.44 | 77.5 | > 100 | 30.3 | – |
| O=S(=O)(Nc1cc(F)cc(F)c1)c1ccc(-c2cnc(C3CC3)o2)cc1 | 2.14 | 80 | > 100 | 35.4 | – |
| Cc1cc(F)cc(NS(=O)(=O)c2ccc(-c3cnc(C4CC4)o3)cc2)c1 | 0.138 | 7.25 | 78 | 28.1 | – |
| O=S(=O)(NCC(F)F)c1ccc(-c2cnc(C3CC3)o2)cc1 | – | – | – | 92.2 | growth at 10 µM [3]: 94.5%; growth at 10 µM [4]: 82.5%; growth at 10 µM [5]: 92.3%; growth at 10 µM [6]: 104%; growth at 10 µM [7]: 101%; growth at 10 µM [8]: 89.3% |
| CN(c1ccc(F)cc1)S(=O)(=O)c1ccc(-c2cnc(C3CC3)o2)cc1 | – | – | – | 31.8 | GI50 [9]: 1.18 µM |
| Cc1ccc(NS(=O)(=O)c2ccc(-c3cnc(C4CC4)o3)cc2)cc1C(F)(F)F | – | – | – | 60.5 | – |
| O=S(=O)(Nc1ccc2c(c1)OC(F)(F)O2)c1ccc(-c2cnc(C3CC3)o2)cc1 | – | – | – | 41.7 | – |
| O=S(=O)(Nc1ccc(Cl)c(C(F)(F)F)c1)c1ccc(-c2cnc(C3CC3)o2)cc1 | – | – | – | 11.4 | growth at 10 µM [3]: 2.7%; GI50 [9]: 0.655 µM; LC50 (concentration causing 50% net cell kill) [9]: 55.4 µM; growth at 10 µM [4]: 5.2%; IC50 [10]: 0.22 µM; growth at 10 µM [5]: 2.9%; growth at 10 µM [6]: 3%; growth at 10 µM [7]: 0.8%; growth at 10 µM [8]: 3.5% |
| COc1cc(NS(=O)(=O)c2ccc(-c3cnc(C4CC4)o3)cc2)ccc1F | 0.328 | 75.7 | > 100 | 25.9 | – |
| O=S(=O)(Nc1ccc(I)c(Cl)c1)c1ccc(-c2cnc(C3CC3)o2)cc1 | 1.01 | 19.6 | > 100 | 29.8 | – |
| O=S(=O)(Nc1ccc(Cl)c(F)c1)c1ccc(-c2cnc(C3CC3)o2)cc1 | 0.38 | 63 | > 100 | 23.8 | – |
| O=S(=O)(Nc1ccc2ccccc2c1)c1ccc(-c2cnc(C3CC3)o2)cc1 | – | – | – | 28.9 | growth at 10 µM [3]: 1.5%; GI50 [9]: 1.84 µM; LC50 (concentration causing 50% net cell kill) [9]: 78.6 µM; growth at 10 µM [4]: 20.2%; growth at 10 µM [5]: 9.7%; growth at 10 µM [6]: 61.9%; growth at 10 µM [7]: 32.7%; growth at 10 µM [8]: 16.5% |
| Cc1cc(NS(=O)(=O)c2ccc(-c3cnc(C4CC4)o3)cc2)ccc1Cl | 0.216 | 33.4 | > 100 | 21.7 | IC50 [10]: < 0.08 µM |
| O=S(=O)(Nc1ccccc1Cl)c1ccc(-c2cnc(C3CC3)o2)cc1 | 0.429 | 49.7 | > 100 | 27.4 | – |
| Cc1ccc(NS(=O)(=O)c2ccc(-c3cnc(C4CC4)o3)cc2)cc1 | – | – | – | 33.1 | – |
| Cc1ccc(NS(=O)(=O)c2ccc(-c3cnc(C4CC4)o3)cc2)cc1C | 0.42 | > 100 | > 100 | 22.8 | – |
| O=S(=O)(Nc1ccc(Cl)cc1)c1ccc(-c2cnc(C3CC3)o2)cc1 | – | – | – | 24.3 | growth at 10 µM [3]: 9%; GI50 [9]: 1.43 µM; LC50 (concentration causing 50% net cell kill) [9]: 57.4 µM; growth at 10 µM [4]: 14.2%; growth at 10 µM [5]: 4.4%; growth at 10 µM [6]: 54.2%; growth at 10 µM [7]: 30.2%; growth at 10 µM [8]: 9.9% |
| O=S(=O)(Nc1ccc(I)cc1)c1ccc(-c2cnc(C3CC3)o2)cc1 | – | – | – | 57.3 | – |
| COc1ccc(NS(=O)(=O)c2ccc(-c3cnc(C4CC4)o3)cc2)cc1Cl | – | – | – | 32.6 | – |
| COc1ccc(NS(=O)(=O)c2ccc(-c3cnc(C4CC4)o3)cc2)cc1 | – | – | – | 56.1 | – |
| O=S(=O)(Nc1cccc2ccccc12)c1ccc(-c2cnc(C3CC3)o2)cc1 | 0.0447 | 22.5 | > 100 | 28.6 | – |
| O=S(=O)(Nc1ccc(OC(F)F)cc1)c1ccc(-c2cnc(C3CC3)o2)cc1 | – | – | – | 63.1 | – |
| Cc1cc(Cl)cc(NS(=O)(=O)c2ccc(-c3cnc(C4CC4)o3)cc2)c1 | 0.175 | 7.04 | 84.9 | 31.6 | – |
